Reference: patent US10675244B2, “Microvesicles derived from nucleated, mammalian cells and use thereof” (MDIMUNE INC., priority 2009, dated 2020)

Key:
Mouse colon 26 cell line = experiment: Growth of colon 26 cancer tissue, comparison with doxorubicin (Example 21); type: in vivo, mice
Description: The mouse colon 26 cell line used in Example 18 was subcutaneously injected at a dose of 1×10^6 cells into mice and cultured for 5 days.
After cultivation for 5 days, PBS, PBS containing 10 μg of the extruded microvesicles loaded with 3 μg of doxorubicin (doxorubicin-microvesicle), or PBS containing 3, 15 or 60 μg of doxorubicin was injected at a dose of 100 μl once every day via the tail vein into mouse groups, each consisting of 5. The volume of cancer tissue was monitored once every two days. The tumor volume was calculated by the equation v=1s^2/2 wherein (1) is a length of the longest axis of a tumor and (s) is a length of the axis perpendicular to the longest axis.

[1] = White blood cell count in blood of treated mice; type: in vivo; details: 60 μg of doxorubicin daily
Description: Mice were anesthetized by abdominal injection of 150 μL of an anesthetic comprising a mixture of 1:3:6 ketamine:rumpon:PBS, and blood samples were taken from the heart and placed in tubes containing an anti-coagulant agent. A mixture of 10 μL of blood and 90 μL of 1% HCl was stored at room temperature for 7 min, and after 10 μL of the mixture was put into a hematocytometer, and white cells were counted.

[2] = 6 hours after tail vein injection; 100 μg microvesicles or 30 μg doxorubicin
Description: After cultivation for 10 days, PBS, PBS containing 100 μg of the extruded microvesicles (doxorubicin-microvesicle), or PBS containing 30 μg of doxorubicin was injected at a dose of 100 μl into mice via the tail vein.
Six hours after the injection, cancer tissue, the spleen and the heart were excised from the mice and fixed for 24 hours in 4% paraformaldehyde. For dehydration, the fixed tissues were immersed once in 70% ethanol, four times in 95% ethanol, three times in 100% ethanol, and three times in 100% xylene, each time for one hour in all cases. Thereafter, the tissues were embedded in paraffin, cut into sections 4 μm thick, and attached onto slide glass. The paraffin was melted by incubation at 60° C. for one hour. For hydration, the tissues were immersed three times in 100% xylene, four times in 100% ethanol, and three times in 95% ethanol, each time for one min in all cases, followed by storage for 5 min in flowing water.
After the hydration, the tissues were subjected to immunohistochemistry to examine whether doxorubicin was delivered to each tissue. In this regard, antigen retrieval was performed using a microwave method. The tissues were placed in 10 mM sodium citrate buffer and irradiated three times, each for five min, with microwaves. The tissues were cooled in flowing water and blocked for 2 hours with TBS containing 5% horse serum and 0.02% Triton X-100. […]

COc1cccc2c1C(=O)c1c(O)c3c(c(O)c1C2=O)C[C@@](O)(C(=O)CO)C[C@@H]3O[C@H]1C[C@H](N)[C@H](O)[C@H](C)O1 [doxorubicin]
equi-effective doxorubicin dose relative to the load of doxorubicin on the microvesicles (Mouse colon 26 cell line; 60 μg versus 3 μg load): 20 fold | dose of doxorubicin alone with the same therapeutic effect as the doxorubicin-loaded microvesicles (Mouse colon 26 cell line; daily tail vein injection, colon 26 tumor): 60 µg | reduction of white blood cell count compared to the control [1]: at least 50% | doxorubicin delivered to the heart [2]: delivered in a large amount to the heart | doxorubicin in cancer blood vessels [2]: cannot by itself be delivered
